# ChEMBL document CHEMBL1157964, “Spasmolytic effects of nonprenylated rotenoid constituents of Boerhaavia diffusa roots” (2006)
# The source made the active and inactive calls. The calls are words filed in the database; no cut-off is given here.
# Test system: Ileum
# Assay: Antispasmodic activity in guinea pig ileum assessed as inhibition of acetylcholine-induced contraction at 10 uM
# Type: functional, Cavia porcellus
# Set-up: scale not given: the % may be the effect or the level left
# Details: not given
row,SMILES,Activity
1,CC(=O)C1=C(O)[C@@H]2[C@H]3c4c[nH]c5cccc(c45)C[C@H]3C(C)(C)N2C1=O [CYCLOPIAZONIC ACID],52.3%

# Test system: Ileum
# Assay: Antispasmodic activity in guinea pig ileum assessed as inhibition of acetylcholine-induced contraction at 1 uM
# Type: functional, Cavia porcellus
# Set-up: scale not given: the % may be the effect or the level left
# Details: not given
row,SMILES,Activity
1,COC(=O)C1=C(C)NC(C)=C(C(=O)OC)C1c1ccccc1[N+](=O)[O-] [NIFEDIPINE],47.3%

# Test system: Ileum
# Assay: Antispasmodic activity in guinea pig ileum assessed as inhibition of acetylcholine-induced contraction at 30 ug/mL
# Type: functional
# Details: Cavia porcellus
SMILES,Emax at 30 µg/mL,Activity
COc1ccccc1-c1coc2cc(O)c(C)c(O)c2c1=O,36.8%,
COc1cc(O)c2c(c1)O[C@@H]1COc3c(O)cccc3[C@@]1(O)C2=O,19.4%,
COC1Oc2cc(O)ccc2-c2c1oc1cc(O)c(C)c(O)c1c2=O (stereo not given),,inactive
COc1cc2c(c(O)c1C)C(=O)[C@]1(O)c3cccc(O)c3OC[C@H]1O2,,inactive
COc1cc2oc3c(c(=O)c2c(O)c1C)-c1cccc(O)c1OC3OC (stereo not given),,inactive
O=c1c2c(oc3cc(O)cc(O)c13)C(O)Oc1ccccc1-2 (stereo not given),,inactive
COc1cc2oc3c(c(=O)c2c(O)c1C)-c1cccc(O)c1OC3O (stereo not given) [9-O-METHYL-4-HYDROXYBOERAVINONE B],100%,
COc1cc2oc3c(c(=O)c2c(O)c1O)-c1ccccc1OC3O (stereo not given) [9-O-METHYL-10-HYDROXYCOCCINEONE B],36.1%,
Cc1c(O)cc2oc3c(c(=O)c2c1O)-c1ccc(O)cc1OC3O (stereo not given) [BOERAVINONE E],100%,
Cc1c(O)cc2oc3c(=O)oc4cc(O)ccc4c3c(=O)c2c1O [BOERAVINONE F],50%,
COc1cc(O)c2c(=O)c3c(oc2c1)C(OC)Oc1c(O)cccc1-3 (stereo not given) [BOERAVINONE G],60%,
COc1cc2c(c(O)c1OC)C(=O)[C@]1(O)c3ccccc3OC[C@H]1O2 [COCCINEONE E],25.2%,
COc1ccc(Cc2nccc3cc(OC)c(OC)cc23)cc1OC [PAPAVERINE],72.3%,
